Assay results from ChEMBL document CHEMBL5291721, “A preclinical secondary pharmacology resource illuminates target-adverse drug reaction associations of marketed drugs” (Nat Commun, 2023).
Blank lines part the entries; values can stand above or below the compound they belong to.

Columns and labels:
[1] = molecular target: T1, Prostaglandin G/H synthase 1 (Rattus norvegicus, UniProt Q63921); type: functional
T1 sequence (Q63921 whole entry): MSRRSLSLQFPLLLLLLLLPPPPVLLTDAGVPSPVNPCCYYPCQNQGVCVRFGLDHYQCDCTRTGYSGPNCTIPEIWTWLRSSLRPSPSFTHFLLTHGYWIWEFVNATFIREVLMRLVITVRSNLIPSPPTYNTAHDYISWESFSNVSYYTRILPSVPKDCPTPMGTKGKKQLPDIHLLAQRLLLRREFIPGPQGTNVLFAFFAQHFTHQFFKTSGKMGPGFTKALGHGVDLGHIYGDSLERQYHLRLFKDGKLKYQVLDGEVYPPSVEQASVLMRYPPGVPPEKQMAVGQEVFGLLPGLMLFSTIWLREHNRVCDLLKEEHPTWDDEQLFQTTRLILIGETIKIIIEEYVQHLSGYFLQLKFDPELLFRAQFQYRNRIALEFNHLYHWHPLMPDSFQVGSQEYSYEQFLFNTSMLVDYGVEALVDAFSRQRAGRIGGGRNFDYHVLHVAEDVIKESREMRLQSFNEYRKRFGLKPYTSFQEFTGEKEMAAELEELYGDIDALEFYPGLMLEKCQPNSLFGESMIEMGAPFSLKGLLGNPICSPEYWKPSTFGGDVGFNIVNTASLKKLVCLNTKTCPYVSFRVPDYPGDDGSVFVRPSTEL

[2] = molecular target: T2, Alpha-1A adrenergic receptor (Homo sapiens, UniProt P35348); type: functional, cell-based
T2 sequence (P35348 whole entry): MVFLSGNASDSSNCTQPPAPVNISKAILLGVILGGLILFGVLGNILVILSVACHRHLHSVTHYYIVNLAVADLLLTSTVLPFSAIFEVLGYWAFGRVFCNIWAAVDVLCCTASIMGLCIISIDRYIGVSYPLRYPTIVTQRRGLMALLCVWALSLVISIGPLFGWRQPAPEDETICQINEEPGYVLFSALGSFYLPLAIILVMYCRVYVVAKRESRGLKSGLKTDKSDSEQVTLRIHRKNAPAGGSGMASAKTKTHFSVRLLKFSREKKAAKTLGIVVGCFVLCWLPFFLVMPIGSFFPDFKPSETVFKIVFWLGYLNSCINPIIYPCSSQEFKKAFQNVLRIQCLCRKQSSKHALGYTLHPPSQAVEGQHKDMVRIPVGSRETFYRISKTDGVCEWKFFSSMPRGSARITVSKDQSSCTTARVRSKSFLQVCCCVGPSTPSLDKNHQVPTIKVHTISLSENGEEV

[3] = molecular target: T3, Bile acid receptor (Homo sapiens, UniProt Q96RI1); type: functional
T3 sequence (Q96RI1 whole entry): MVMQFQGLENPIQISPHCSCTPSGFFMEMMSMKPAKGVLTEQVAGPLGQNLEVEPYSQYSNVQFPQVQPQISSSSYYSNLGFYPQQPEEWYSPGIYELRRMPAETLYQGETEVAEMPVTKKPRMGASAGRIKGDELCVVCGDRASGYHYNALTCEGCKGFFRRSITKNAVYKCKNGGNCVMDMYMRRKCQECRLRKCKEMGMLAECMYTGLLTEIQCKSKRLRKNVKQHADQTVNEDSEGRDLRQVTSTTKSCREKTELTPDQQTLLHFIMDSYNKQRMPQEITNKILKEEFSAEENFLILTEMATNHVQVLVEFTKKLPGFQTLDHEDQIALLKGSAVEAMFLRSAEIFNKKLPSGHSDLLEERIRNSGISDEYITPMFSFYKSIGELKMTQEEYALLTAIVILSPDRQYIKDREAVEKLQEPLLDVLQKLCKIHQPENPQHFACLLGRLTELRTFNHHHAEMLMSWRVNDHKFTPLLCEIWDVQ

[4] = molecular target: T4, Retinoic acid receptor beta (Homo sapiens, UniProt P10826); type: functional, cell-based
T4 sequence (P10826 whole entry): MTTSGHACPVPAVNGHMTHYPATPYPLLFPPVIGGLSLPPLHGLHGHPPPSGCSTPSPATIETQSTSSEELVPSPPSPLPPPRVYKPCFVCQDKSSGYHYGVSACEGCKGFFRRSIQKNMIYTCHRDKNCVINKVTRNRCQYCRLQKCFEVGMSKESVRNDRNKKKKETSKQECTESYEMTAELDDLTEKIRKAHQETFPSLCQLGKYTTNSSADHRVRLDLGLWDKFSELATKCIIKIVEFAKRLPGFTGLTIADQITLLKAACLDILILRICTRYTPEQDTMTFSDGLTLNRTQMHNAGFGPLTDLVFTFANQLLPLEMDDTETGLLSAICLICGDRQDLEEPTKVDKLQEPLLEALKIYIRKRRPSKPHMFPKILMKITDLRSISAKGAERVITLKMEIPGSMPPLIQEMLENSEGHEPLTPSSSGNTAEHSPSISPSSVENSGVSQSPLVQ

[5] = molecular target: T5, Oxysterols receptor LXR-beta (Homo sapiens, UniProt P55055); type: functional
T5 sequence (P55055 whole entry): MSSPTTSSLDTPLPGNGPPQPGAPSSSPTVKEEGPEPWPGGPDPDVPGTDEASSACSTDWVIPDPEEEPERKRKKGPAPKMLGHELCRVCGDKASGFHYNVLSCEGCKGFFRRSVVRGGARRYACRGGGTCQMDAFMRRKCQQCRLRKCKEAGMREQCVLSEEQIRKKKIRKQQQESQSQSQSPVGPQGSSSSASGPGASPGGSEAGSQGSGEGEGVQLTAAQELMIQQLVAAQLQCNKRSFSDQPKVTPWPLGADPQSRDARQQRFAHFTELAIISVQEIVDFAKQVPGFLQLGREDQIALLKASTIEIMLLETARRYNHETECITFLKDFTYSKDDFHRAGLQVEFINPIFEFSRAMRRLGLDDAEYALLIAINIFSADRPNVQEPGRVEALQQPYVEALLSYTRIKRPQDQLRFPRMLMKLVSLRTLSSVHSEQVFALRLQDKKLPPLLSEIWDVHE

[6] = molecular target: T6, Oxysterols receptor LXR-alpha (Homo sapiens, UniProt Q13133); type: functional
T6 sequence (Q13133 whole entry): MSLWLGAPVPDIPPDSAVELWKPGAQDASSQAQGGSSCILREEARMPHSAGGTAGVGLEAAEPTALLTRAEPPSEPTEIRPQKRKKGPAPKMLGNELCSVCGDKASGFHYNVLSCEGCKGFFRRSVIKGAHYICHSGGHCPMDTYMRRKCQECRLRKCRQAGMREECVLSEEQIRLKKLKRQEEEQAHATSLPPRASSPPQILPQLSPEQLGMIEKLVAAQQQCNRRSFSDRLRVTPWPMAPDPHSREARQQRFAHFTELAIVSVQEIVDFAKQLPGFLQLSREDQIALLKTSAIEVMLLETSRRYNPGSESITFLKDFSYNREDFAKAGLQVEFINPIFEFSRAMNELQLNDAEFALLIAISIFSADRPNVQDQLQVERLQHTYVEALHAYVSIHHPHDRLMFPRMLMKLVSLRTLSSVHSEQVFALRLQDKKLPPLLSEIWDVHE
Further: assay procedure not described here.

- AC50 [1]: 0.0782 µM
SMILES: COc1ccc(C(Cl)=C(c2ccc(OC)cc2)c2ccc(OC)cc2)cc1 [CHLOROTRIANISENE]

- AC50 [2]: 0.0093 µM
SMILES: N=C(N)NC(=O)Cc1c(Cl)cccc1Cl [GUANFACINE]

SMILES: CC(=O)N1CCN(c2ccc(OCC3COC(Cn4ccnc4)(c4ccc(Cl)cc4Cl)O3)cc2)CC1 (stereo unspecified) [KETOCONAZOLE]
- AC50 [3]: > 10 µM
- AC50 [4]: > 30 µM
- AC50 [5]: > 30 µM
- AC50 [6]: > 30 µM
